Measured values reported in US20240174649A1, “CULLIN-RING E3 UBIQUITIN LIGASE 4 INHIBITOR COMPOUNDS AND METHODS OF THEIR USE” (ICAHN SCHOOL OF MEDICINE AT MOUNT SINAI, priority 2021, published 2024).

What was measured:
ROC1-CUL4A = ROC1-CUL4A (Homo sapiens (Human), UniProt Q13619); test: 32P-Ub chain elongation by ROC1-CUL4A; assay type: biochemical; design: concentration or dose not given beside the values; settings: relative to KH-4-43
Protocol: The reaction was incubated for 5 min at 37° C. […] The reaction was incubated for 5 min at room temperature. In the second step (chase), the completed Cdc34b-Ub thiol ester reaction mixture was combined with one third of the completed mono-ubiquitination mixture. The final volume was adjusted to 10 μl with a mix that contained 50 mM Tris-HCl (pH 7.4), 0.5 mM DTT, 0.1 mg/ml of BSA, 5 mM MgCl2, and 2 mM ATP. Compounds were added where indicated. The chase reaction was incubated for 10 min at 37° C. The reaction products were separated by 4-20% SDS-polyacrylamide gel electrophoresis. The reaction scheme was identical to the one described above for FIGS. 12A-B. […] The reaction products, separated by SDS-PAGE, were visualized and analyzed by phospho-imaging using Typhoon 9500 scanner.

Nedd8-ROC1-CUL1 = Nedd8-ROC1-CUL1 (Homo sapiens (Human), UniProt Q13616); test: Ub chain assembly measured by Coomassie stain; assay type: biochemical
Sequence of Nedd8-ROC1-CUL1 (Q13616 whole entry): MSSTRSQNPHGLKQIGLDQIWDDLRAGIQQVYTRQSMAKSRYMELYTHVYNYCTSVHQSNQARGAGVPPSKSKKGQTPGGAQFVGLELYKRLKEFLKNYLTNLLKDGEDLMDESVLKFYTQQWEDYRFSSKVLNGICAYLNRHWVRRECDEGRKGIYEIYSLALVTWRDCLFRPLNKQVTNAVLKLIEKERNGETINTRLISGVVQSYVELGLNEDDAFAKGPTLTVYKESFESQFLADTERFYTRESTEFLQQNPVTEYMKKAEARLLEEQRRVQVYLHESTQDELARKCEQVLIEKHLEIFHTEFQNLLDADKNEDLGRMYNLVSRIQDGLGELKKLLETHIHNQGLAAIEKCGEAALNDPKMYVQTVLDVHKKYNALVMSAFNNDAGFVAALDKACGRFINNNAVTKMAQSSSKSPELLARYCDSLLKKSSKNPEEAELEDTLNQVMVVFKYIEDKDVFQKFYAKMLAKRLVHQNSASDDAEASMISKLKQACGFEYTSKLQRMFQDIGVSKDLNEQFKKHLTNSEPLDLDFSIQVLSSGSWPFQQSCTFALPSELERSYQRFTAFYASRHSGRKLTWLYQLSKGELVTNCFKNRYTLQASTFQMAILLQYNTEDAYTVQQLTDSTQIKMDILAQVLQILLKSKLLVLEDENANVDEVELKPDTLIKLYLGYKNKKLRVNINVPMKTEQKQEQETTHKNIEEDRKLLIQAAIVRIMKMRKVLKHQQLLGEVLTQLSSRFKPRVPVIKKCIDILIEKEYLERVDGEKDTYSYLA
Sequence of Nedd8-ROC1-CUL1 (P62877 whole entry partner): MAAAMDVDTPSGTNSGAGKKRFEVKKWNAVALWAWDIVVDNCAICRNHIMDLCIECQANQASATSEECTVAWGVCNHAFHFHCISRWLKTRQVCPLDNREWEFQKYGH
Sequence of Nedd8-ROC1-CUL1 (Q15843 1-76 partner): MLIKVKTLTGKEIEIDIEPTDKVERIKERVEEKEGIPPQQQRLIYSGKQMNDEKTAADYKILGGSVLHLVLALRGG
Protocol: (§1) Reaction mixture contained 2 mM ATP, 10 mM MgCl2, 0.01 μg/μl of GST-E1 (Ub), 0.01 μg/μl of Cdc34, 0.1 μg/μl of Nedd8-ROC1-CUL1 or Nedd8-ROC1-CUL4A, and 1 μg/μl of Ub. Where indicated, DMSO and compound were added. The reaction was incubated at 37° C. for 60 min. Following separation of reaction products by SDS-PAGE, proteins were visualized by Coomassie stain.

Nedd8-ROC1-CUL4A = Nedd8-ROC1-CUL4A (Homo sapiens (Human), UniProt Q13619); test: Ub chain assembly measured by Coomassie stain; assay type: biochemical; settings: 10 μM
Sequence of Nedd8-ROC1-CUL4A (Q13619 39-759 limits assumed): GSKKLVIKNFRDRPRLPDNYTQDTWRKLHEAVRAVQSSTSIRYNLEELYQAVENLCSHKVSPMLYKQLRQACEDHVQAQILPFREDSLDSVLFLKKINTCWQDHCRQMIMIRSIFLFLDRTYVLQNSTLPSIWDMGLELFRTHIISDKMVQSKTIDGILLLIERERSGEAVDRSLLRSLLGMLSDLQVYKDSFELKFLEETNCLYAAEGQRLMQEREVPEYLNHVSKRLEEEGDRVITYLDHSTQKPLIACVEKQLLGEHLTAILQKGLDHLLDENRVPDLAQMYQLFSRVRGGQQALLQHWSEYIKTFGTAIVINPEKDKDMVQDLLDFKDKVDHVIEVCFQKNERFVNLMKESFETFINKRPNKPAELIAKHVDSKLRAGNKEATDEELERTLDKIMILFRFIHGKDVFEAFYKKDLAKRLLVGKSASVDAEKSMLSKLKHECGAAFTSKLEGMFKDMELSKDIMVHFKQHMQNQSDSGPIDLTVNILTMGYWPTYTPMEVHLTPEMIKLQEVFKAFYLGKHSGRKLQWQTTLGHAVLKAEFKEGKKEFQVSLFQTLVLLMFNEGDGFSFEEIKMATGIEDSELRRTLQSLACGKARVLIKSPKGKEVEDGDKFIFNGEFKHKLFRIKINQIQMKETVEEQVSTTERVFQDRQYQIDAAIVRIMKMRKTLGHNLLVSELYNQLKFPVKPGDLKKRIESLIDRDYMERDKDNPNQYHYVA
Sequence of Nedd8-ROC1-CUL4A (P62877 15-108 partner limits assumed): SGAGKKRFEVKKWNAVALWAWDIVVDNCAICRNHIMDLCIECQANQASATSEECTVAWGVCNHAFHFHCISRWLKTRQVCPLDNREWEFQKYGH
Sequence of Nedd8-ROC1-CUL4A (Q15843 1-76 partner limits assumed): as the sequence (Q15843 1-76 partner) above
Protocol: as §1

ROC1-CUL2 = ROC1-CUL2 (Homo sapiens (Human), UniProt Q13617); test: Gel-based di-Ub synthesis; assay type: biochemical; settings: up to 150 μM
Sequence of ROC1-CUL2 (Q13617 whole entry): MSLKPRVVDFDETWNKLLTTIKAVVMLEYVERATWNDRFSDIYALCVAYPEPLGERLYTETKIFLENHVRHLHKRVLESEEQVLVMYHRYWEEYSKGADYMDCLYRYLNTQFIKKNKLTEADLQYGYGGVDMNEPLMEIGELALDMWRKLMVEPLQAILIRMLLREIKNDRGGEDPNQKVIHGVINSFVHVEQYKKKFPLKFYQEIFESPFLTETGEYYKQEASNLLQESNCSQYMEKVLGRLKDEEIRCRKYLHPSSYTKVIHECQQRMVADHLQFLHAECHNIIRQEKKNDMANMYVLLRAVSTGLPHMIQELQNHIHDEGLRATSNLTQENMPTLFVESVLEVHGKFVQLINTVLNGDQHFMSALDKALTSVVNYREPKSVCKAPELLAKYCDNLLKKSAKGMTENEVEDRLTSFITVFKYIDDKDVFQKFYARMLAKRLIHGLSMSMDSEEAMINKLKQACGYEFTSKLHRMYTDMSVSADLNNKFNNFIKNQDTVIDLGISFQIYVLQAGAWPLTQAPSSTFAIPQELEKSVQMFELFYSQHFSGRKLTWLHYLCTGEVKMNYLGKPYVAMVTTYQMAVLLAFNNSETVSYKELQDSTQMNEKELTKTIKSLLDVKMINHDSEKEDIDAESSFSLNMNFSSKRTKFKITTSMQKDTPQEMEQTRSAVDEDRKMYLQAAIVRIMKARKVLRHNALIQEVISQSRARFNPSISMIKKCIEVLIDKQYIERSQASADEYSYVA
Sequence of ROC1-CUL2 (P62877 whole entry partner): as the sequence (P62877 whole entry partner) above

ROC1-CUL3 = ROC1-CUL3 (Homo sapiens (Human), UniProt Q13618); test: Gel-based di-Ub synthesis; assay type: biochemical; settings: up to 150 μM
Sequence of ROC1-CUL3 (Q13618 whole entry): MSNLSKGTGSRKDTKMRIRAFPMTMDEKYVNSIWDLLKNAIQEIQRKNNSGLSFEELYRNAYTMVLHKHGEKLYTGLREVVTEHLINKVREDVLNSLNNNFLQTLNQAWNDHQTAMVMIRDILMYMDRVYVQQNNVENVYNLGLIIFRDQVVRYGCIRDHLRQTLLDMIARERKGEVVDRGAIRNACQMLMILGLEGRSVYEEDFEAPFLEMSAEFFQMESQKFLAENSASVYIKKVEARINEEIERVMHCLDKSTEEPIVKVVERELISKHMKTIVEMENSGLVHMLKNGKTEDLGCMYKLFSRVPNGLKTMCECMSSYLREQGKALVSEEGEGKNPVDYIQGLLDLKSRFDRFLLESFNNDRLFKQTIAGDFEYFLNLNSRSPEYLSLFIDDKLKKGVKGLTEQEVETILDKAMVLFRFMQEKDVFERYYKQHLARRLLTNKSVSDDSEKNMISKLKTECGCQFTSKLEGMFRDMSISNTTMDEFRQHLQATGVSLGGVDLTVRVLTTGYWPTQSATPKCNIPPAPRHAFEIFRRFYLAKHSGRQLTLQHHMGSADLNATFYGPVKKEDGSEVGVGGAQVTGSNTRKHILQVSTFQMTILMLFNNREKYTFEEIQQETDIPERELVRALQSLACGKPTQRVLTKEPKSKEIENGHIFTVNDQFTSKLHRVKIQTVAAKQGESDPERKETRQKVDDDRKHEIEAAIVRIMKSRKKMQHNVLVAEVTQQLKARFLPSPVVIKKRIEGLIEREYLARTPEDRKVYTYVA
Sequence of ROC1-CUL3 (P62877 whole entry partner): as the sequence (P62877 whole entry partner) above

H1299 = test: Apoptosis, Annexin V flow cytometry; assay type: cell-based; settings: Homo sapiens, NCI-H1299; H1299, Lung
Procedure, shortened: (§2)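 5×10^4 cells were seeded 24 h before treatment, then cultured with compound for 48 h. Pelleted cells were washed in Annexin V binding buffer (HEPES pH 7.4, with CaCl2) and stained in the dark with Annexin V-FITC (2 μg/ml) for 5 min. Apoptosis was read by flow cytometry.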

HCT116 = test: Apoptosis, Annexin V flow cytometry; assay type: cell-based; settings: Homo sapiens, HCT-116; HCT116, Colon
Procedure, shortened: as §2

K562 = test: Apoptosis, Annexin V flow cytometry; assay type: cell-based; settings: Homo sapiens; K562, CML
Procedure, shortened: as §2

MDA-MB-231 = test: Apoptosis, Annexin V flow cytometry; assay type: cell-based; settings: Homo sapiens; MDA-MB-231, Breast
Procedure, shortened: as §2

ML-2 = test: Apoptosis, Annexin V flow cytometry; assay type: cell-based; settings: Homo sapiens; ML-2, AML
Procedure, shortened: as §2

MOLT-4 = test: Apoptosis, Annexin V flow cytometry; assay type: cell-based; settings: Homo sapiens; MOLT-4, ALL
Procedure, shortened: as §2

MV4-11 = test: Apoptosis, Annexin V flow cytometry; assay type: cell-based; settings: Homo sapiens; MV4-11, AML
Procedure, shortened: as §2

NB-4 = test: Apoptosis, Annexin V flow cytometry; assay type: cell-based; settings: Homo sapiens; NB-4, AML
Procedure, shortened: as §2

THP-1 = test: Apoptosis, Annexin V flow cytometry; assay type: cell-based; settings: Homo sapiens, THP-1, THP-1, AML
Procedure, shortened: as §2

U2OS = test: Apoptosis, Annexin V flow cytometry; assay type: cell-based; settings: Homo sapiens, Bone
Procedure, shortened: as §2

Plasma stability = assay type: in vitro ADME; settings: Human
Protocol: (§3) ADME studies on compounds #33-11 and KH-4-43 for “absorption, distribution, metabolism, and excretion” were carried out at CRO, BioDuro. Kinetic solubility, plasma and microsome stability in rat, mouse and human, as well as Caco-2 Permeability were examined.

Kinetic solubility = assay type: physicochemical; settings: pH 7.4
Protocol: as §3

E3 (CUL1) = E3 (CUL1) (Homo sapiens (Human), UniProt Q13616); test: E3 (CUL1) inhibition (Table 1); assay type: biochemical
Sequence of E3 (CUL1) (Q13616 whole entry): as the sequence (Q13616 whole entry) above
Sequence of E3 (CUL1) (P62877 whole entry partner): as the sequence (P62877 whole entry partner) above
Protocol: The reaction mixture (15 μl) was assembled onto a 384-well microtiter plate. […] ATP (0.66 mM) was then added to the mix followed by a brief centrifugation to settle down the mixture. The resulting plate was incubated at 30° C. in the Synergy-H1 reader and the fluorescence signal was monitored. Ubiquitination was quantified based on the ratio of acceptor:donor fluorescence (excitation 515 nm; donor emission 570 nm, acceptor emission 670 nm).

E3 (CUL4) = E3 (CUL4) (Homo sapiens (Human), UniProt Q13619); test: E3 (CUL4) inhibition (Table 1); assay type: biochemical
Sequence of E3 (CUL4) (Q13619 whole entry): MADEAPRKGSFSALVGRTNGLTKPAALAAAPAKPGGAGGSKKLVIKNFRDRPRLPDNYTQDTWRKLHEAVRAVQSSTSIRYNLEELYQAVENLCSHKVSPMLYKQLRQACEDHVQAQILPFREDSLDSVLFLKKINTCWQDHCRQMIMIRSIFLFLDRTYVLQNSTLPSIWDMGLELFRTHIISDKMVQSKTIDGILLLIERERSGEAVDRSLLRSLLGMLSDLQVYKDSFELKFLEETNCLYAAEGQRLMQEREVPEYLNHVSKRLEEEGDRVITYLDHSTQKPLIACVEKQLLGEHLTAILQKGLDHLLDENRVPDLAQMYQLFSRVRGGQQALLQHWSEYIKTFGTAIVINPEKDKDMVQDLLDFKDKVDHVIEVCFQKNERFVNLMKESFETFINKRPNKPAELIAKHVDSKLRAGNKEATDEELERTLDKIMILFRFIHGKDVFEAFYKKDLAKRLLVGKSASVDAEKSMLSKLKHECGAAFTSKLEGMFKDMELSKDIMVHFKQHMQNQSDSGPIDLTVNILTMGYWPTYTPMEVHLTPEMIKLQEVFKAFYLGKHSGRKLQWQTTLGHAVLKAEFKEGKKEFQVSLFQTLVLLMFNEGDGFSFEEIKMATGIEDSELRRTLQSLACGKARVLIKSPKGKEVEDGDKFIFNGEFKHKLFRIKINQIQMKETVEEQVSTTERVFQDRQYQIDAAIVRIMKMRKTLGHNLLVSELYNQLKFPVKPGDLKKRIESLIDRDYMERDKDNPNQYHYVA
Sequence of E3 (CUL4) (P62877 whole entry partner): as the sequence (P62877 whole entry partner) above
Procedure, shortened: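 Two-step assay: Cdc34b-Ub thiol ester formation, then chase with ROC1-cullin mono-ubiquitination mix for 10 min at 37° C in 50 mM Tris-HCl pH 7.4, 0.5 mM DTT, 0.1 mg/ml BSA, 5 mM MgCl2, 2 mM ATP with compounds. 32P-Ub chain products resolved by SDS-PAGE and quantified by phospho-imaging.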

tumor cell lines = test: Cytotoxicity in a subset of tumor cell lines; assay type: cell-based
Protocol: Cells (5×10^4) were seeded 24 hours before compound treatment. Compound was added to the culture media and cells were cultured with the compound for 48 hours. The treated cells were then transferred into 5 ml flow cytometry tubes and the well was washed once with PBS to collect any remaining cells. The cells were then pelleted at 500×g for 5 min with a Beckman CS-6KR centrifuge at 4° C. After removal of supernatant, the cells pellet was washed with Annexin V binding buffer (10 mM Hepes-NaOH, pH 7.4, 150 mM NaCl, 5 mM KCl, 1 mM MgCl2, and 1.8 mM CaCl2). Cells were pelleted once again and incubated in the dark with Annexin V-FITC (2 μg/ml) in binding buffer for 5 min then analyzed using LSRFortessa flow cytometer (BD).
For cell viability assay, 10,000 cells (per well) were seeded in 96 well plates in 100 microliters of media and incubated overnight. Serial dilutions of compounds tested were then added to wells in triplicate. The cells were incubated for an additional 48 hours. […] The luminescence of each well was then read using a Synergy multi-mode plate reader (BioTek). For determining relative luminescence, the background (average reading of wells containing only media and CellTiter-Glo reagent, no cells) was first subtracted from the reading of each sample. […] Then EC50 was determined using the four parameter logistics regression standard curve.

[1] = Liver microsome stability; assay type: in vitro ADME
Protocol: as §3

CRL1/SCF = CRL1/SCF (Homo sapiens, UniProt Q13616)

Sequence of ROC1-CUL4A (Q13619 39-759): as the sequence (Q13619 39-759 limits assumed) above
Sequence of ROC1-CUL4A (P62877 15-108 partner): as the sequence (P62877 15-108 partner limits assumed) above

In the case of O=c1c(-c2cnn(-c3ccccc3)c2)c(C(F)(F)F)oc2c(O)c(O)ccc12 [#33-11, 7,8-dihydroxy-3-(1-phenyl-1H-pyrazol-4-yl)-2-(trifluoromethyl)-4H-chromen-4-one], the “E3 CRL4 Relative Inhibition” value (ROC1-CUL4A) is reported as 37%, the “effect on Ub chain assembly” value (Nedd8-ROC1-CUL1; 1 mM) is reported as “blocked the utilization of Ub” and the “effect on Ub chain assembly” value (Nedd8-ROC1-CUL1; 10 or 100 μM) is reported as “little effect”. The “effect on Ub chain assembly” value (Nedd8-ROC1-CUL4A) was “block the utilization of free Ub”, the “level of di-Ub product” value (ROC1-CUL2) was “remained almost unchanged” and the “level of di-Ub product” value (ROC1-CUL3) was “remained almost unchanged”. For the same compound, the EC50 (H1299) was about 81 µM, the EC50 (HCT116) was about 58 µM and the EC50 (K562) was about 54 µM. For the same compound, the EC50 (MDA-MB-231) was over 100 µM, the EC50 (ML-2) was about 14 µM and the EC50 (MOLT-4) was about 5 µM. For the same compound, the EC50 (MV4-11) was about 13 µM, the EC50 (NB-4) was about 7 µM and the EC50 (THP-1) was 14 µM. For the same compound, the EC50 (U2OS) was about 78 µM, the “Plasma Stability: t1/2” value (Plasma stability) was over 500 min and the “Kinetic solubility, rating” value (Kinetic solubility) was “moderate solubility”.

O=c1c(-c2cnn(-c3ccc(Cl)cc3)c2)c(C(F)(F)F)oc2c(O)c(O)ccc12 [KH-4-43, 3-(1-(4-chlorophenyl)-1H-pyrazol-4-yl)-7,8-dihydroxy-2-(trifluoromethyl)-4H-chromen-4-one] gave an EC50 (E3 (CUL1)) of 7 µM, an EC50 (E3 (CUL4)) of 10 µM and an EC50 (tumor cell lines) of about 2000 nM. For the same compound, the “Liver microsomes: t1/2” value ([1]; Human) was over 500 min, the “Liver microsomes: t1/2” value ([1]; Rat) was over 500 min and the “dose range inhibiting ubiquitination by CRL1/SCF” value (CRL1/SCF) was about 30 µM.
